26 molecules from patent publication US20260250290A1 (BRISTOL-MYERS SQUIBB COMPANY, priority 2023, published 2026) can be followed below.

pIC50: −log10 of the molar value. Where a name gives a salt, the structure may show the parent alone.

The experiment deals with T1, full length SGK1 (Homo sapiens, UniProt O00141).
T1 construct: 125 μM full length SGK1 (Life Technologies Part #PR7358A); purchased Life Technologies PR7358A
T1 sequence (O00141 1-431): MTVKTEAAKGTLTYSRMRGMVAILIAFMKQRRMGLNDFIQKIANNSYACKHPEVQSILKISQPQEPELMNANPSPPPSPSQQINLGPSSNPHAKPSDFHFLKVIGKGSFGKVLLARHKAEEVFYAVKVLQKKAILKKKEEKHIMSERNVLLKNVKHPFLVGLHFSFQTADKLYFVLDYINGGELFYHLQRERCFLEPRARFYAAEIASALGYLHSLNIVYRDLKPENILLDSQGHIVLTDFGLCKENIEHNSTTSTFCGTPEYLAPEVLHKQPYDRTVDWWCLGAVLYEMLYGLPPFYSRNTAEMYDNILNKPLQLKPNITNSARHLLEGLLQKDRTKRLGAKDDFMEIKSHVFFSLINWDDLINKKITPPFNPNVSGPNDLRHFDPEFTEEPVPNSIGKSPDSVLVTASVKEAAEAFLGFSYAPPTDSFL
Briefly: SGK1 inhibition Assay A (Caliper LabChip electrophoretic separation of fluorescent peptide substrate and phosphorylated product). It is filed as biochemical. The following applies: Assay A; 20 μM ATP, 40 min incubation; read-out: SGK1 IC50.
Turning to `COc1c(C(=O)N[C@@H]2CCCN(c3cc(-c4ccnc(F)c4)n4ncnc(N)c34)C2)csc1Cl` [Example 158, (R)-N-(1-(4-amino-7-(2-fluoropyridin-4-yl)pyrrolo[2,1-f][1,2,4]triazin-5-yl)piperidin-3-yl)-5-chloro-4-methoxythiophene-3-carboxamide], the pIC50 – broadly, −log10 of the IC50, conventionally taken in molar units – is 8.22.
Under `N#Cc1cc(-c2cc(N3CCC[C@@H](NC(=O)c4sc(C(F)F)cc4OC4COC4)C3)c3c(N)ncnn23)ccn1` [Example 437, (R)-N-(1-(4-amino-7-(2-cyanopyridin-4-yl)pyrrolo[2,1-f][1,2,4]triazin-5-yl)piperidin-3-yl)-5-(difluoromethyl)-3-(oxetan-3-yloxy)thiophene-2-carboxamide] stands 8.10; under `Nc1ncnn2c(-c3cncnc3)cc(N3CCC[C@@H](NC(=O)c4sc5ccccc5c4OC4CCNCC4)C3)c12` [Example 657, (R)—N-(1-(4-amino-7-(pyrimidin-5-yl)pyrrolo[2,1-f][1,2,4]triazin-5-yl)piperidin-3-yl)-3-(piperidin-4-yloxy)benzo[b]thiophene-2-carboxamide], 7.29.
Under `CS(=O)(=O)c1ccc(-c2cc(N3CCC[C@@H](NC(=O)c4cccnc4)C3)c3c(N)ncnn23)cc1` [Example 50, (R)-N-(1-(4-amino-7-(4-(methylsulfonyl)phenyl)pyrrolo [2,1-f][1,2,4]triazin-5-yl)piperidin-3-yl)nicotinamide, TFA] stands 7.16.
Next, `CC(=O)N1CC=C(c2cc(N3CCC[C@@H](NC(=O)c4cccc(C)n4)C3)c3c(N)ncnn23)C1` [Example 448, (R)-N-(1-(7-(1-acetyl-2,5-dihydro-1H-pyrrol-3-yl)-4-aminopyrrolo[2,1-][1,2,4]triazin-5-yl)piperidin-3-yl)-6-methylpicolinamide]: 8.40; `Cc1cc(Br)c(C(=O)N[C@@H]2CCCN(c3cc(-c4ccnc(F)c4)n4ncnc(N)c34)C2)s1` [Example 170, (R)—N-(1-(4-amino-7-(2-fluoropyridin-4-yl)pyrrolo[2,1-f][1,2,4]triazin-5-yl)piperidin-3-yl)-3-bromo-5-methylthiophene-2-carboxamide]: 8.22; “(R)-N-(1-(4-amino-7-(1-ethyl-1H-pyrazol-5-yl)pyrrolo[2,1-f][1,2,4]triazin-5-yl)piperidin-3-yl)-6-(4-methylpiperazin-1-yl)picolinamide [Example 790]”: 7.52.
For the molecule `NCCC(=O)N1CC=C(c2cc(N3CCC[C@@H](NC(=O)c4ccc(Cl)s4)C3)c3c(N)ncnn23)C1` [Example 883, (R)-N-(1-(4-amino-7-(1-(3-aminopropanoy1)-2,5-dihydro-1H-pyrrol-3-yl)pyrrolo[2,1-f][1,2,4]triazin-5-y1)piperidin-3-y1)-5-chlorothiophene-2-carboxamide], the pIC50 was 8.22.
For the molecule `CC(=O)N1CC=C(c2cc(N3CCC[C@@H](NC(=O)c4ccc(CO)cc4)C3)c3c(N)ncnn23)C1` [Example 457, (R)-N-(1-(7-(1-acetyl-2,5-dihydro-1H-pyrrol-3-yl)-4-aminopyrrolo[2,1-f][1,2,4]triazin-5-yl)piperidin-3-yl)-4-(hydroxymethyl)benzamide], the pIC50 is 7.74.
Under `COC(=O)N1CC=C(c2cc(N3CCC[C@@H](NC(=O)c4sc(C5CC5)cc4OCCN(C)C)C3)c3c(N)ncnn23)C1` [Example 371, Methyl (R)-3-(4-amino-5-(3-(5-cyclopropyl-3-(2-(dimethylamino)ethoxy)thiophene-2-carboxamido)piperidin-1-yl)pyrrolo[2,1-f][1,2,4]triazin-7-yl)-2,5-dihydro-1H-pyrrole-1-carboxylate] stands 9.00; under `CS(=O)(=O)c1ccc(-c2cc(N3CCC[C@@H](NC(=O)c4cccc(F)c4)C3)c3c(N)ncnn23)cc1` [Example 53, (R)-N-(1-(4-amino-7-(4-(methylsulfonyl)phenyl)pyrrolo[2,1-f][1,2,4]triazin-5-yl)piperidin-3-yl)-3-fluorobenzamide], 7.82; under `Nc1ncnn2c(-c3ccnc(F)c3)cc(N3CCC[C@@H](NC(=O)c4csc5ccccc45)C3)c12` [Example 159, (R)-N-(1-(4-amino-7-(2-fluoropyridin-4-yl)pyrrolo[2,1-f][1,2,4]triazin-5-yl)piperidin-3-yl)benzo[b]thiophene-3-carboxamide, TFA], 7.77.
Under `Cc1ccc(C(=O)N[C@@H]2CCCN(c3cc(-c4ccnc(F)c4)n4ncnc(N)c34)C2)s1` [Example 131, N-[(3R)-1-[4-amino-7-(2-fluoropyridin-4-yl)pyrrolo[2,1-f][1,2,4]triazin-5-yl]piperidin-3-yl]-5-methylthiophene-2-carboxamide] stands 8.70; under `N=c1ccc(-c2cc(N3CCC[C@@H](NC(=O)c4ccc(Cl)s4)C3)c3c(N)ncnn23)cn1C(F)F` [Example 683], 6.71; under `CN(C)CCOc1cc(Cl)sc1C(=O)N[C@@H]1CCCN(c2cc(C3=CCN(C(=O)C4CCCOC4)C3)n3ncnc(N)c23)C1` (stereo partly drawn) [Example 909, N-((3R)-1-(4-amino-7-(1-(tetrahydro-2H-pyran-3-carbonyl)-2,5-dihydro-1H-pyrrol-3~yl)pyrrolo[2,1-f][1,2,4]triazin-5-y1)piperidin-3-y1)-5-chloro-3-(2-(dimethylamino)ethoxy)thiophene-2-carboxamide], 7.85.
Next, `CC(=O)N1CC=C(c2cc(N3CCC[C@@H](NC(=O)c4ccnc(OCCN5CCOCC5)c4)C3)c3c(N)ncnn23)C1` [Example 707, (R)-N-(1-(7-(1-acetyl-2,5-dihydro-1H-pyrrol-3-yl)-4-aminopyrrolo[2,1-f][1,2,4]triazin-5-yl)piperidin-3-yl)-2-(2-morpholinoethoxy) isonicotinamide]: 7.17.
For `Cn1nccc1-c1cc(N2CCC[C@@H](NC(=O)c3ccc(Cl)s3)C2)c2c(N)ncnn12` [Example 210, (R)-N-(1-(4-amino-7-(1-methyl-1H-pyrazol-5-yl)pyrrolo[2,1-f][1,2,4]triazin-5-yl)piperidin-3-yl)-5-chlorothiophene-2-carboxamide, TFA], the pIC50 is 8.05.
Consider `CC(=O)N1CC=C(c2cc(N3CCC[C@@H](NC(=O)c4sc(Cl)cc4OC4CCNCC4F)C3)c3c(N)ncnn23)C1` (stereo partly drawn) [Example 602, N-((R)-1-(7-(1-acetyl-2,5-dihydro-1H-pyrrol-3-yl)-4-aminopyrrolo[2,1-f][1,2,4]triazin-5-y1)piperidin-3-y1)-5-chloro-3-((3-fluoropiperidin-4-yl)oxy)thiophone-2-carboxamide], for which the pIC50 is 8.52.
Next, `Nc1ncnn2c(-c3ccnc4[nH]ccc34)cc(N3CCC[C@@H](NC(=O)c4ccc(Cl)s4)C3)c12` [Example 205, (R)-N-(1-(4-amino-7-(1H-pyrrolo[2,3-b]pyridin-4-yl)pyrrolo[2,1-f][1,2,4]triazin-5-yl)piperidin-3-yl)-5-chlorothiophene-2-carboxamide, TFA]: 8.15; `CC(C)N1CCC(Oc2cc(C3CC3)sc2C(=O)N[C@@H]2CCCN(c3cc(-c4ccc(C#N)nc4)n4ncnc(N)c34)C2)CC1` [Example 382, (R)-N-(1-(4-amino-7-(6-cyanopyridin-3-yl)pyrrolo[2,1-f][1,2,4]triazin-5-yl)piperidin-3-yl)-5-cyclopropyl-3-((1-isopropylpiperidin-4-yl)oxy)thiophene-2-carboxamide]: 8.30.
Take `N#Cc1ccc(-c2cc(N3CCC[C@@H](NC(=O)c4nc5ccccc5s4)C3)c3c(N)ncnn23)cn1` [Example 647, (R)-N-(1-(4-amino-7-(6-cyanopyridin-3-yl)pyrrolo[2,1-f][1,2,4]triazin-5-yl)piperidin-3-yl)benzo[d]thiazole-2-carboxamide]: the pIC50 was 7.20.
For the molecule `COC(=O)NCCOc1cc(C(F)F)sc1C(=O)N[C@@H]1CCCN(c2cc(-c3cnc(C#N)c(C)c3)n3ncnc(N)c23)C1` [Example 431, methyl (R)-(2-((2-((1-(4-amino-7-(6-cyano-5-methylpyridin-3-yl)pyrrolo[2,1-f] [1,2,4]triazin-5-yl)piperidin-3-yl)carbamoyl)-5-(difluoromethyl)thiophen-3-yl)oxy)ethyl)carbamate], the pIC50 is 7.85.
Next, `Nc1ncnn2c(-c3ccc(CN4CCOCC4)cc3)cc(N3CCC[C@@H](NC(=O)c4ccc(Cl)s4)C3)c12` [Example 221]: 6.10; `Nc1ncnn2c(C3=CCN(C(=O)c4cnco4)C3)cc(N3CCC[C@@H](NC(=O)c4ccc(Cl)s4)C3)c12` [Example 890, (R)-N-(1-(4-amino-7-(1-(oxazole-5-carbony1)-2,5-dihydro-1H-pyrrol-3-y1)pyrrolo[2,1-f][1,2,4]triazin-5-yl)piperidin-3-y1)-5-chlorothiophene-2-carboxamide]: 9.00; `CC(=O)N1CC=C(c2cc(N3CCC[C@@H](NC(=O)c4cccc(N5CCOCC5)n4)C3)c3c(N)ncnn23)C1` [Example 703, (R)-N-(1-(7-(1-acetyl-2,5-dihydro-1H-pyrrol-3-yl)-4-aminopyrrolo[2,1-f][1,2,4]triazin-5-yl)piperidin-3-yl)-6-morpholinopicolinamide]: 7.54.
Under `CC(=O)N1CC=C(c2cc(N3CCC[C@@H](NC(=O)c4sc(Cl)cc4OC4CN(CC(F)F)C4)C3)c3c(N)ncnn23)C1` [Example 384, (R)-N-(1-(7-(1-acetyl-2,5-dihydro-1H-pyrrol-3-yl)-4-aminopyrrolo[2,1-f][1,2,4]triazin-5-yl)piperidin-3-yl)-5-chloro-3-((1-(2,2-difluoroethyl)azetidin-3-yl)oxy)thiophene-2-carboxamide] stands 7.24.
